Measurements published in the supplement of paper PMC10307832.

Experiments:
Assay in all cases: relative viability (nuclei count vs DMSO), 5 days (fraction); higher = more cells survive
[1] = compound: COc1cc(Nc2c(C#N)cnc3cc(OCCCN4CCN(C)CC4)c(OC)cc23)c(Cl)cc1Cl [Bosutinib] + COc1cc2c(Oc3ccc(NC(=O)C4(C(=O)Nc5ccc(F)cc5)CC4)cc3F)ccnc2cc1OCCCN1CCOCC1 [Foretinib] (partner 0.25 µM)
Outline: (§1)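 Cells from lung cancer lines were seeded into 1536-well plates and, one day later, dosed by pin tool. Treatments were either a single drug or a fixed dose of an anchor drug with five library-drug doses (not always all listed) in √10 steps. After 5 days, nuclei were stained in a one-step fixation (final 0.05% Triton X-100, 1% formaldehyde, 1 ug/ml Hoechst) and counted on 4× images, and relative viability is the treated-to-vehicle nuclei ratio, as the median of duplicate plates.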

[2] = compound: COc1cc(Nc2c(C#N)cnc3cc(OCCCN4CCN(C)CC4)c(OC)cc23)c(Cl)cc1Cl [Bosutinib] + C[C@]1(O)C[C@@H](c2nc(-c3ccc4ccc(-c5ccccc5)nc4c3)c3c(N)nccn32)C1 [Linsitinib] (partner 1 µM)
Outline: as §1

[3] = compound: COc1cc(Nc2c(C#N)cnc3cc(OCCCN4CCN(C)CC4)c(OC)cc23)c(Cl)cc1Cl [Bosutinib] + N=C(N)NC(=N)NCCc1ccccc1 [Phenformin] (partner 250 µM)
Outline: as §1

[4] = compound: COc1cc(Nc2c(C#N)cnc3cc(OCCCN4CCN(C)CC4)c(OC)cc23)c(Cl)cc1Cl [Bosutinib] + C[C@@H](Oc1cc(-c2cnn(C3CCNCC3)c2)cnc1N)c1c(Cl)ccc(F)c1Cl [Crizotinib] (partner 1 µM)
Outline: as §1

[5] = compound: COc1cc(Nc2c(C#N)cnc3cc(OCCCN4CCN(C)CC4)c(OC)cc23)c(Cl)cc1Cl [Bosutinib]
Outline: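 MetaXpress counted nuclei in 4× images of lung cancer cell lines that had been fixed, permeabilised and Hoechst-stained in one step. Before that, cells in 1536-well plates were kept overnight at 37 °C, pinned with five √10-spaced library-drug doses on vehicle-anchored plates, and cultured 5 days without medium change. Viability takes treated-well nuclei over vehicle-well nuclei and uses the median across plates. Plates were accepted only at control CV below 25% and at least one doubling.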

Row | Cell Line | relative viability ([1]; first compound 0.01 µM) | relative viability ([1]; first compound 0.03162 µM) | relative viability ([1]; first compound 0.1 µM) | relative viability ([1]; first compound 1 µM) | relative viability ([2]; first compound 0.01 µM) | relative viability ([2]; first compound 0.03162 µM) | relative viability ([2]; first compound 0.1 µM) | relative viability ([2]; first compound 1 µM) | relative viability ([3]; first compound 0.01 µM) | relative viability ([3]; first compound 0.03162 µM) | relative viability ([3]; first compound 0.1 µM) | relative viability ([3]; first compound 1 µM) | relative viability ([4]; first compound 0.01 µM) | relative viability ([4]; first compound 0.03162 µM) | relative viability ([4]; first compound 0.1 µM) | relative viability ([4]; first compound 1 µM) | relative viability ([5]; 0.01 µM) | relative viability ([5]; 0.03162 µM) | relative viability ([5]; 0.1 µM) | relative viability ([5]; 1 µM)
1 | COR-L 105 | 1.05 | 1.05 | 0.895 | 0.844 | 0.948 | 1.21 | 0.857 | 0.59 | 0.55 | 0.522 | 0.519 | 0.357 | 0.938 | 0.798 | 0.617 | 0.507 | 0.974 | 0.861 | 0.914 | 0.735
2 | NCI-H2228 | 0.762 | 0.931 | 0.887 | 0.744 | 0.821 |  | 0.818 | 0.496 | 0.308 | 0.236 | 0.284 | 0.326 | 0.472 |  | 0.402 | 0.333 | 0.906 | 0.918 | 0.989 | 0.882
3 | NCI-H838 | 1.08 | 1.02 | 0.989 | 0.598 | 1.04 | 0.97 | 0.951 | 0.466 | 0.658 | 0.56 | 0.53 | 0.375 | 0.845 | 0.79 | 0.737 | 0.354 | 0.975 | 0.942 | 0.953 | 0.693
4 | EMC-BAC-2 | 1.02 | 0.981 | 1.06 | 0.768 | 0.852 | 0.791 | 0.832 | 0.733 | 0.464 | 0.545 | 0.488 | 0.376 | 0.763 | 0.756 | 0.789 | 0.759 | 0.95 | 1.09 | 1.09 | 0.928
5 | LU99A | 0.853 | 1.04 | 0.967 | 1.07 | 0.587 | 0.576 | 0.584 | 0.678 | 0.92 | 0.781 | 0.832 | 0.478 | 0.527 | 0.561 | 0.563 | 0.647 | 0.958 | 1.02 | 1.04 | 0.606
6 | PC-3 [JPC-3] | 1 | 0.993 | 1.05 | 0.759 | 0.954 | 0.957 | 0.971 | 0.912 | 0.481 | 0.506 | 0.43 | 0.441 | 0.899 | 0.939 | 0.978 | 0.942 | 1.04 | 1.07 | 1.06 | 0.745
7 | NCI-H596 | 0.745 | 0.857 | 0.721 | 0.855 | 0.941 | 0.978 | 1.16 | 0.831 | 0.883 | 0.668 | 0.721 | 0.646 | 0.923 | 0.884 | 0.989 | 0.743 | 1.11 | 1.03 | 0.984 | 0.863
8 | LCLC-97TM1 | 0.902 | 0.902 | 0.904 | 0.894 | 0.213 | 0.216 | 0.209 | 0.175 | 0.452 | 0.434 | 0.541 | 0.411 | 0.369 | 0.494 | 0.443 | 0.414 | 1.03 | 0.969 | 1.06 | 1.04
9 | NCI-H1993 | 0.819 | 0.672 | 0.778 | 0.564 | 0.749 | 0.759 | 0.645 | 0.762 | 0.513 | 0.511 | 0.492 | 0.59 | 0.816 | 0.875 | 0.686 | 0.602 | 0.977 | 0.9 | 0.987 | 0.936
10 | HARA | 0.869 | 0.872 | 0.878 | 0.646 | 1.01 | 0.913 | 0.892 | 0.629 | 0.522 | 0.431 | 0.376 | 0.45 | 1.14 | 0.955 | 0.995 | 0.642 | 1.07 | 1.02 | 0.993 | 0.791
11 | NCI-H460 | 1.01 | 1.03 | 1 | 0.855 | 0.753 | 0.835 | 0.668 | 0.338 | 0.557 | 0.492 | 0.491 | 0.356 | 0.85 | 0.884 | 0.859 | 0.639 | 1.02 | 0.976 | 0.967 | 0.875
12 | EKVX | 0.723 | 0.82 | 0.693 | 0.469 | 0.974 | 0.982 | 1 | 0.539 | 0.213 | 0.248 | 0.236 | 0.223 | 0.895 | 0.753 | 1.01 | 0.481 | 0.927 | 0.971 | 0.952 | 0.85
13 | NCI-H1755 | 0.974 | 0.988 | 0.983 | 0.801 | 0.952 | 1.03 | 1.02 | 0.954 | 0.635 | 0.682 | 0.659 | 0.588 | 0.804 | 0.953 | 0.903 | 0.688 | 1.01 | 1.09 | 1.03 | 0.951
14 | NCI-H2087 | 1.02 | 1.02 | 1.17 | 1.1 | 0.871 | 1.08 | 0.779 | 0.94 | 0.563 | 0.43 | 0.411 | 0.457 | 0.905 | 0.991 | 0.817 | 0.908 | 1.07 | 1.04 | 0.951 | 1.08
15 | H3255 | 0.835 | 0.885 | 0.969 | 0.79 | 0.94 | 0.974 | 0.994 | 0.45 | 0.361 | 0.359 | 0.356 | 0.309 | 0.901 | 0.855 | 0.853 | 0.354 | 0.931 | 0.978 | 0.995 | 0.594
16 | SK-MES-1 | 0.966 | 0.955 | 0.97 | 0.747 | 1.16 | 1.07 | 1.08 | 0.941 | 0.66 | 0.686 | 0.632 | 0.502 | 0.954 | 1.03 | 0.997 | 0.96 | 1.02 | 1.01 | 1.01 | 0.815
